# Assay results as given in ChEMBL document CHEMBL1201862, “PubChem BioAssay data set” (2004).
#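 Protocol summary: plate cells (96-well), add compound at 5 concentrations, incubate 48 h, interpolate endpoints linearly. GI50 = concentration required for 50% inhibition of growth.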 The source made the active and inactive calls. Rule as the data show it: active = GI50 up to about 1.1 µM and inactive = higher.
# Tests used:
# Assay in all cases: NCI anticancer screen, dose series, 48 h
# 786-0 = test system: 786-0
# A498 = test system: A498
# A549 = test system: A549
# BT-549 = test system: BT-549
# CAKI-1 = test system: CAKI-1
# DU-145 = test system: DU-145
# HCC 2998 = test system: HCC 2998
# HOP-92 = test system: HOP-92
# Hs-578T = test system: Hs-578T
# LOX IMVI = test system: LOX IMVI
# M14 = test system: M14
# MDA-MB-231 = test system: MDA-MB-231
# MDA-MB-435 = test system: MDA-MB-435
# Malme-3M = test system: Malme-3M
# NCI-H23 = test system: NCI-H23
# NCI-H460 = test system: NCI-H460
# NCI-H522 = test system: NCI-H522
# OVCAR-3 = test system: OVCAR-3
# OVCAR-4 = test system: OVCAR-4
# OVCAR-5 = test system: OVCAR-5
# OVCAR-8 = test system: OVCAR-8
# PC-3 = test system: PC-3
# RPMI-8226 = test system: RPMI-8226
# RXF 393 = test system: RXF 393
# SF-268 = test system: SF-268
# SF-539 = test system: SF-539
# SK-MEL-28 = test system: SK-MEL-28
# SK-MEL-2 = test system: SK-MEL-2
# SK-MEL-5 = test system: SK-MEL-5
# SK-OV-3 = test system: SK-OV-3
# SN12C = test system: SN12C
# SNB-19 = test system: SNB-19
# SNB-75 = test system: SNB-75
# T47D = test system: T47D
# TK-10 = test system: TK-10
# U-251 = test system: U-251
# UACC-257 = test system: UACC-257
# UACC-62 = test system: UACC-62
# UO-31 = test system: UO-31
# ACHN = test system: ACHN
# CCRF-CEM = test system: CCRF-CEM
# COLO 205 = test system: COLO 205
# EKVX = test system: EKVX
# HCT-116 = test system: HCT-116
# HCT-15 = test system: HCT-15
# HL-60 = test system: HL-60
# HOP-62 = test system: HOP-62
# HT-29 = test system: HT-29
# IGROV-1 = test system: IGROV-1
# K562 = test system: K562
# KM12 = test system: KM12
# MCF7 = test system: MCF7
# MOLT-4 = test system: MOLT-4
# NCI-H226 = test system: NCI-H226
# NCI/ADR-RES = test system: NCI/ADR-RES
# SF-295 = test system: SF-295
# SR = test system: SR
# SW-620 = test system: SW-620
compound,measurement,setting,value
Cc1cc(C)c2c(c1)CC1(Cc3ccc(C)c(C)c3C1=O)C2=O (stereo not given),GI50,786-0,> 100 µM (inactive)
same,GI50,A498,> 100 µM (inactive)
same,GI50,A549,> 100 µM (inactive)
same,GI50,BT-549,> 100 µM (inactive)
same,GI50,CAKI-1,> 100 µM (inactive)
same,GI50,DU-145,> 100 µM (inactive)
same,GI50,HCC 2998,> 100 µM (inactive)
same,GI50,HOP-92,> 100 µM (inactive)
same,GI50,Hs-578T,11.4 µM (inactive)
same,GI50,LOX IMVI,> 100 µM (inactive)
same,GI50,M14,> 100 µM (inactive)
same,GI50,MDA-MB-231,6.24 µM (inactive)
same,GI50,MDA-MB-435,2.24 µM (inactive)
same,GI50,Malme-3M,3.56 µM (inactive)
same,GI50,NCI-H23,> 100 µM (inactive)
same,GI50,NCI-H460,> 100 µM (inactive)
same,GI50,NCI-H522,> 100 µM (inactive)
same,GI50,OVCAR-3,> 100 µM (inactive)
same,GI50,OVCAR-4,45.9 µM (inactive)
same,GI50,OVCAR-5,> 100 µM (inactive)
same,GI50,OVCAR-8,> 100 µM (inactive)
same,GI50,PC-3,56.2 µM (inactive)
same,GI50,RPMI-8226,> 100 µM (inactive)
same,GI50,RXF 393,15.8 µM (inactive)
same,GI50,SF-268,> 100 µM (inactive)
same,GI50,SF-539,> 100 µM (inactive)
same,GI50,SK-MEL-28,> 100 µM (inactive)
same,GI50,SK-MEL-2,> 100 µM (inactive)
same,GI50,SK-MEL-5,> 100 µM (inactive)
same,GI50,SK-OV-3,> 100 µM (inactive)
same,GI50,SN12C,> 100 µM (inactive)
same,GI50,SNB-19,> 100 µM (inactive)
same,GI50,SNB-75,> 100 µM (inactive)
same,GI50,T47D,> 100 µM (inactive)
same,GI50,TK-10,49.8 µM (inactive)
same,GI50,U-251,45.2 µM (inactive)
same,GI50,UACC-257,> 100 µM (inactive)
same,GI50,UACC-62,> 100 µM (inactive)
same,GI50,UO-31,> 100 µM (inactive)
O=C(NCCCCNCCCNC(=O)C(F)(F)F)C(F)(F)F,GI50,786-0,> 100 µM (inactive)
same,GI50,A498,> 100 µM (inactive)
same,GI50,A549,> 100 µM (inactive)
same,GI50,ACHN,> 100 µM (inactive)
same,GI50,BT-549,> 100 µM (inactive)
same,GI50,CAKI-1,> 100 µM (inactive)
same,GI50,CCRF-CEM,> 100 µM (inactive)
same,GI50,COLO 205,> 100 µM (inactive)
same,GI50,DU-145,> 100 µM (inactive)
same,GI50,EKVX,> 100 µM (inactive)
same,GI50,HCC 2998,> 100 µM (inactive)
same,GI50,HCT-116,> 100 µM (inactive)
same,GI50,HCT-15,> 100 µM
same,GI50,HL-60,5.07 µM (inactive)
same,GI50,HOP-62,> 100 µM (inactive)
same,GI50,HOP-92,> 100 µM (inactive)
same,GI50,HT-29,> 100 µM (inactive)
same,GI50,Hs-578T,> 100 µM (inactive)
same,GI50,IGROV-1,> 100 µM (inactive)
same,GI50,K562,> 100 µM (inactive)
same,GI50,KM12,> 100 µM (inactive)
same,GI50,M14,> 100 µM (inactive)
same,GI50,MCF7,> 100 µM (inactive)
same,GI50,MDA-MB-231,> 100 µM (inactive)
same,GI50,MDA-MB-435,> 100 µM (inactive)
same,GI50,MOLT-4,> 100 µM (inactive)
same,GI50,NCI-H226,> 100 µM (inactive)
same,GI50,NCI-H23,> 100 µM (inactive)
same,GI50,NCI-H460,> 100 µM (inactive)
same,GI50,NCI-H522,> 100 µM (inactive)
same,GI50,NCI/ADR-RES,> 100 µM (inactive)
same,GI50,OVCAR-3,> 100 µM (inactive)
same,GI50,OVCAR-4,> 100 µM (inactive)
same,GI50,OVCAR-5,> 100 µM (inactive)
same,GI50,OVCAR-8,> 100 µM (inactive)
same,GI50,PC-3,> 100 µM (inactive)
same,GI50,RPMI-8226,> 100 µM (inactive)
same,GI50,RXF 393,> 100 µM (inactive)
same,GI50,SF-268,> 100 µM (inactive)
same,GI50,SF-295,32.6 µM (inactive)
same,GI50,SF-539,> 100 µM (inactive)
same,GI50,SK-MEL-28,> 100 µM (inactive)
same,GI50,SK-MEL-2,> 100 µM (inactive)
same,GI50,SK-MEL-5,> 100 µM (inactive)
same,GI50,SK-OV-3,26.8 µM (inactive)
same,GI50,SN12C,> 100 µM (inactive)
same,GI50,SNB-19,> 100 µM (inactive)
same,GI50,SNB-75,> 100 µM (inactive)
same,GI50,SR,> 100 µM (inactive)
same,GI50,SW-620,> 100 µM (inactive)
same,GI50,T47D,> 100 µM (inactive)
same,GI50,TK-10,> 100 µM (inactive)
same,GI50,U-251,> 100 µM (inactive)
same,GI50,UACC-257,> 100 µM (inactive)
same,GI50,UACC-62,> 100 µM (inactive)
same,GI50,UO-31,> 100 µM (inactive)
